Structures are written as SMILES.

The first assay deals with Phospho-ERK in NCI-H358 cells expressing KRas G12C. Nature of the assay: Cellular inhibition of KRas G12C by Phospho-ERK measurement in NCI-H358 cells. The note with it: Homo sapiens, NCI-H358, 3 h, read-out: IC50 (pERK(Thr202/Tyr204) normalized with GAPDH). The format is cell-based. Here is the method: The cellular inhibition of KRAs G12C by exemplary compounds of the present invention was determined by measuring the amount of a downstream marker of KRas activity, phosphorylated ERK (“Phospho-ERK”).
NCI-H358 cells (ATCC CRL-5807) express KRas G12C and were grown in RPMI medium supplemented with 10% fetal bovine serum, penicillin/streptomycin and 10 mM HEPES. Cells were plated in poly-D-Lysine coated 96-well plates at a concentration of 50,000 cells/well and allowed to attach for 8-12 hours. Diluted compounds were then added at a final concentration of 0.5% DMSO. After 3 hours, the medium was removed, 150 μL of 4% formaldehyde was added and the plates were incubated for 20 minutes. The plates were washed with PBS, and permeabilized using 150 μL of ice cold 100% methanol for 10 minutes. Non-specific antibody binding to the plates was blocked using 100 μL Licor Blocking Buffer (Li-Cor Biotechnology, Lincoln Nebr.) for 1 hour at room temperature. Positive control samples and samples lacking cells were parallel processed with test samples as standards.
The amount Phospho-ERK was determined using an antibody specific for the phosphorylated form of ERK and compared to the amount of GAPDH. Primary antibodies used for detection were added as follows: Phospho-ERK (Cell Signaling cs9101) diluted 1:500 and GAPDH (Millipore MAB374) diluted 1:5000 in Licor block+0.05% Tween 20. The plates were incubated for 2 hours at room temperature. The plates were washed with PBS+0.05% Tween 20.
Secondary antibodies used to visualize primary antibodies were added as follows: Anti-rabbit-680 diluted 1:1000 and Anti-mouse-800 diluted 1:1000 in Licor Block+0.050 Tween 20 and incubated for 1 hour at room temperature. The plates were washed with PBS+0.05% o Tween 20. A100 L aliquot of PBS was added to each well and the plates were read on a LICOR AERIUS plate reader.
The pERK(Thr202/Tyr204) signal was normalized with the GAPDH signal and percent of DMSO control values were calculated. IC50 values were generated using a 4 parameter fit of the dose response curve. Key: “A”≥0.001-≤1 μM; “B”[…] and ND=not determined.
For the compound `C=CC(=O)N1CCN(c2nc(OC[C@@H]3CCCN3C)nc3c2CCN(c2cc(O)cc4ccccc24)C3)CC1` [Example 127, (S)-1-(4-(7-(3-hydroxynaphthalen-1-yl)-2-((1-methylpyrrolidin-2-yl)methoxy)-5,6,7,8-tetrahydropyrido[3,4-d]pyrimidin-4-yl)piperazin-1-yl)prop-2-en-1-one], the IC50 is 1 to 1000 nM.

Staying with this assay, now noted: Homo sapiens; NCI-H358 cells, 3 hours compound treatment; read-out: IC50 (pERK(Thr202/Tyr204) normalized with GAPDH).
As for `C=CC(=O)N1CCN(c2nc(OCCCN3C[C@@H]4C[C@H]3CO4)nc3c2CCN(c2cccc4ccccc24)C3)CC1CC#N` (stereo partly drawn) [Example 154, 2-[4-[7-(1-naphthyl)-2-[3-[(1S,4S)-2-oxa-5-azabicyclo[2.2.1]heptan-5-yl]propoxy]-6,8-dihydro-5H-pyrido[3,4-d]pyrimidin-4-yl]-1-prop-2-enoyl-piperazin-2-yl]acetonitrile], the IC50 is 1 to 1000 nM.
Same read-out and setting: next, `C=CC(=O)N1CCN(c2nc(OCCN3CCCCC3)nc3c2CCN(c2cc(O)cc4ccccc24)C3)CC1` [Example 52, 1-[4-[7-(3-hydroxy-1-naphthyl)-2-[2-(1-piperidyl)ethoxy]-6,8-dihydro-5H-pyrido[3,4-d]pyrimidin-4-yl]piperazin-1-yl]prop-2-en-1-one]: 1 to 1000 nM; `C=CC(=O)N1CCN(c2nc(OC[C@H]3CCCN3C)nc3c2CCN(c2c(C(F)(F)F)ccc4[nH]ncc24)C3)CC1CC#N` (stereo partly drawn) [Example 243, 2-[4-[2-[[(2R)-1-methylpyrrolidin-2-yl]methoxy]-7-[5-(trifluoromethyl)-1H-indazol-4-yl]-6,8-dihydro-5H-pyrido[3,4-d]pyrimidin-4-yl]-1-prop-2-enoyl-piperazin-2-yl]acetonitrile]: 1 to 1000 nM.
Consider `C=CC(=O)N1CCN(c2nc(OC[C@@H]3CCCN3C)nc3c2CCN(c2ccccc2F)C3)CC1CC#N` (stereo partly drawn) [Example 227, 2-(1-acryloyl-4-(7-(2-fluorophenyl)-2-(((S)-1-methylpyrrolidin-2-yl)methoxy)-5,6,7,8-tetrahydropyrido[3,4-d]pyrimidin-4-yl)piperazin-2-yl)acetonitrile], for which the IC50 lay in the range of 1 to 1000 nM.
Regarding `C=CC(=O)N1CCN(c2nc(O[C@H](C)CN(C)C)nc3c2CCN(c2cc(O)cc4ccccc24)C3)CC1` [Example 19, (R)-1-(4-(2-((1-(dimethylamino)propan-2-yl)oxy)-7-(3-hydroxynaphthalen-1-yl)-5,6,7,8-tetrahydropyrido[3,4-d]pyrimidin-4-yl)piperazin-1-yl)prop-2-en-1-one], the IC50 lay within 1 to 1000 nM.
As for `C=CC(=O)N1CCN(c2nc(OC(C)CCN(C)C)nc3c2CCN(c2cc(O)cc4ccccc24)C3)CC1` (stereo not drawn) [Example 21, 1-(4-(2-((4-(dimethylamino)butan-2-yl)oxy)-7-(3-hydroxynaphthalen-1-yl)-5,6,7,8-tetrahydropyrido[3,4-d]pyrimidin-4-yl)piperazin-1-yl)prop-2-en-1-one], the IC50 lay within 1 to 1000 nM.
Regarding `C=CC(=O)N1CCN(c2nc(OC[C@@H]3CCCN3CCOC)nc3c2CCN(c2cccc4ccccc24)C3)CC1CC#N` (stereo partly drawn) [Example 266, 2-(1-acryloyl-4-(2-(((S)-1-(2-methoxyethyl)pyrrolidin-2-yl)methoxy)-7-(naphthalen-1-yl)-5,6,7,8-tetrahydropyrido[3,4-d]pyrimidin-4-yl)piperazin-2-yl)acetonitrile], the IC50 is 1 to 1000 nM.
Turning to `C=CC(=O)N1CCN(c2nc(O[C@H](C)CN3CCCCC3)nc3c2CCN(c2cc(O)cc4ccccc24)C3)CC1` [Example 75, (R)-1-(4-(7-(3-hydroxynaphthalen-1-yl)-2-((1-(piperidin-1-yl)propan-2-yl)oxy)-5,6,7,8-tetrahydropyrido[3,4-d]pyrimidin-4-yl)piperazin-1-yl)prop-2-en-1-one], the IC50 fell in the range of 1 to 1000 nM.
On to `C=CC(=O)N1CCN(c2nc(O[C@@H](C)[C@@H]3CCCN3C)nc3c2CCN(c2cc(O)cc4ccccc24)C3)CC1` [Example 130, 1-(4-(7-(3-hydroxynaphthalen-1-yl)-2-((S)-1-((S)-1-methylpyrrolidin-2-yl)ethoxy)-5,6,7,8-tetrahydropyrido[3,4-d]pyrimidin-4-yl)piperazin-1-yl)prop-2-en-1-one], for which the IC50 fell in the range of 1 to 1000 nM.
Turning to `C=CC(=O)N1CCN(c2nc(OC[C@@H]3CCCN3C)nc3c2CCN(c2ccccc2Cl)C3)CC1CC#N` (stereo partly drawn) [Example 229, 2-(1-acryloyl-4-(7-(2-chlorophenyl)-2-(((S)-1-methylpyrrolidin-2-yl)methoxy)-5,6,7,8-tetrahydropyrido[3,4-d]pyrimidin-4-yl)piperazin-2-yl)acetonitrile], the IC50 was 1 to 1000 nM.
Turning to `C=CC(=O)N1CCN(c2nc(OC[C@@H]3CCCN3C)nc3c2CCN(c2cccc(Cl)c2C(F)(F)F)C3)CC1CC#N` (stereo partly drawn) [Example 277, 2-(1-acryloyl-4-(7-(3-chloro-2-(trifluoromethyl)phenyl)-2-(((S)-1-methylpyrrolidin-2-yl)methoxy)-5,6,7,8-tetrahydropyrido[3,4-d]pyrimidin-4-yl)piperazin-2-yl)acetonitrile], the IC50 was 1 to 1000 nM.
On to `C=CC(=O)N1CCN(c2nc(OC[C@@H]3CCCN3C)nc3c2CCN(c2cc(O)cc4ccccc24)C3)[C@@H](C)C1` [Example 202, 1-((S)-4-(7-(3-hydroxynaphthalen-1-yl)-2-(((S)-1-methylpyrrolidin-2-yl)methoxy)-5,6,7,8-tetrahydropyrido[3,4-d]pyrimidin-4-yl)-3-methylpiperazin-1-yl)prop-2-en-1-one], for which the IC50 lay within 1 to 1000 nM.
The same measure, in the same setting: the value for `C=CC(=O)N1CCN(c2nc(OCC3CCN(C4CCCCC4)C3)nc3c2CCN(c2cc(O)cc4ccccc24)C3)CC1` (stereo not drawn) [Example 132, 1-[4-[2-[(1-cyclohexylpyrrolidin-3-yl)methoxy]-7-(3-hydroxy-1-naphthyl)-6,8-dihydro-5H-pyrido[3,4-d]pyrimidin-4-yl]piperazin-1-yl]prop-2-en-1-one] was 1 to 1000 nM; that for `C=CC(=O)N1CCN(c2nc(OCC(C)(C)N(C)C)nc3c2CCN(c2cccc4ccccc24)C3)CC1CC#N` (stereo not drawn) [Example 269, 2-(1-acryloyl-4-(2-(2-(dimethylamino)-2-methylpropoxy)-7-(naphthalen-1-yl)-5,6,7,8-tetrahydropyrido[3,4-d]pyrimidin-4-yl)piperazin-2-yl)acetonitrile] was 1 to 1000 nM.
Same read-out and setting: the value for `C=CC(=O)N1CCN(c2nc(OC[C@@H]3CCCN3C)nc3c2CCN(c2c(F)cccc2C(F)(F)F)C3)CC1CC#N` (stereo partly drawn) [Example 275, 2-(1-acryloyl-4-(7-(2-fluoro-6-(trifluoromethyl)phenyl)-2-(((S)-1-methylpyrrolidin-2-yl)methoxy)-5,6,7,8-tetrahydropyrido[3,4-d]pyrimidin-4-yl)piperazin-2-yl)acetonitrile] was 1 to 1000 nM.
As for `C=CC(=O)N1CCN(c2nc(OC[C@H]3CCCN3C)nc3c2CCN(c2cccc(F)c2C(F)(F)F)C3)C[C@@H]1CC#N` [Example 274, 2-((S)-1-acryloyl-4-(7-(3-fluoro-2-(trifluoromethyl)phenyl)-2-(((R)-1-methylpyrrolidin-2-yl)methoxy)-5,6,7,8-tetrahydropyrido[3,4-d]pyrimidin-4-yl)piperazin-2-yl)acetonitrile], the IC50 lay within 1 to 1000 nM.
Regarding `C=CC(=O)N1CCN(c2nc(OC[C@@H]3CCCN3C)nc3c2CCN(c2cc(F)ccc2OC(F)(F)F)C3)CC1CC#N` (stereo partly drawn) [Example 225, 2-(1-acryloyl-4-(7-(5-fluoro-2-(trifluoromethoxy)phenyl)-2-(((S)-1-methylpyrrolidin-2-yl)methoxy)-5,6,7,8-tetrahydropyrido[3,4-d]pyrimidin-4-yl)piperazin-2-yl)acetonitrile], the IC50 was 1 to 1000 nM.
The same measure, in the same setting: the value for `C=CC(=O)N1CCN(c2nc(OCCCN3CCCCC3)nc3c2CCN(c2cc(O)cc4ccccc24)C3)CC1` [Example 38, 1-(4-(7-(3-hydroxynaphthalen-1-yl)-2-(3-(piperidin-1-yl)propoxy)-5,6,7,8-tetrahydropyrido[3,4-d]pyrimidin-4-yl)piperazin-1-yl)prop-2-en-1-one] was 1 to 1000 nM.
On to `C=CC(=O)N1CCN(c2nc(O[C@@H]3CCCN(C)C3)nc3c2CCN(c2cc(O)cc4ccccc24)C3)CC1` [Example 67, (R)-1-(4-(7-(3-hydroxynaphthalen-1-yl)-2-((1-methylpiperidin-3-yl)oxy)-5,6,7,8-tetrahydropyrido[3,4-d]pyrimidin-4-yl)piperazin-1-yl)prop-2-en-1-one], for which the IC50 lay within 1 to 1000 nM.
Take `C=CC(=O)N1CCN(c2nc(OCCN3CCCC[C@H]3C)nc3c2CCN(c2cc(O)cc4ccccc24)C3)CC1` [Example 97, (R)-1-(4-(7-(3-hydroxynaphthalen-1-yl)-2-(2-(2-methylpiperidin-1-yl)ethoxy)-5,6,7,8-tetrahydropyrido[3,4-d]pyrimidin-4-yl)piperazin-1-yl)prop-2-en-1-one]: the IC50 is 1 to 1000 nM.
